We go through two compounds from US11319273B2, “Lipophilic curcumin analogs and methods of inhibiting HIV-1, treating latent HIV in the brain, and preventing HIV-mediated cognitive decline and HIV dementia” (Howard University, priority 2012, dated 2022).

By IC50 is commonly meant the point on the concentration scale where inhibition reaches its midpoint.

For one series, the system named is AKT1. Kind of series: Effect on AKT1 mRNA level in CEM cells. Conditions: CEM cells (FIG. 4). The class given is cell-based. An excerpt:
(§1) Along with brain-derived neurotrophic factor (“BDNF”), protein kinase B (“AKT”), and mitogen-activated protein kinase 1 (“MAPK1”) (i.e., ERK1/2) genes are known to critically regulate cell survival and growth of neurons during development and the survival and function of adult neurons, as well as modulate synaptic transmission and plasticity. This example compares activities of natural curcumin and curcumin analog (1E,4E)-1,5-bis(4-hydroxy-3-methoxyphenyl)penta-1,4-dien-3-one on AKT, MAPK1 and […]. The analog was predicted to be more biologically soluble, absorbable, and more resistant to degradation than the natural curcumin. It has already been shown that natural curcumin increases the expression of BDNF in the hippocampus of rats. It was believed that, compared to natural curcumin, the analog would result in greater increase in the activities of these three neuroprotective genes as proof-of-principle of neuroprotection from latent HIV brain disease. The analysis was conducted on CEM cell lines, which are cells that are susceptible to HIV infection.

The subject of the next series is BDNF. Nature of the series: Effect on BDNF mRNA level in CEM cells. The conditions noted are these: CEM cells (FIG. 4). The class given is cell-based.
Text: as §1

In a further series the test system is MAPK1. Kind of series: Effect on MAPK1 mRNA level in CEM cells. It counts as cell-based. The conditions noted are these: CEM cells (FIG. 4).
Text: as §1

The nature of series [1]: Lipophilicity (octanol-water partition coefficient). It counts as physicochemical. An excerpt:
As used herein, lipophilicity refers to the affinity of a compound for a lipophilic environment. By one approach, lipophilicity can be determined using an octanol-water partition coefficient (Kow), which represents the ratio of the solubility of a compound in octanol (a non-polar solvent) to its solubility in water (a polar solvent). The higher the Kow, the more non-polar the compound. Log Kow values are generally inversely related to aqueous solubility and directly proportional to molecular weight. For purposes herein, lipophilicity values range between 0 to 10 and a value of at least 2.5 indicates good lipophilicity. A log Kow value less than 0 is considered hydrophilic.

Series [2] deals with vesicular stomatitus virus glycoprotein (VSVG) pseudotyped HIV-1 pNL 4-3 virus expressing luciferase (VSVG-HIV-1 Luc).
Series [3] has the same test system. Nature of the series: microbe, parasite or virus in culture. Conditions: Human immunodeficiency virus 1, T-cell, 48 h, read-out: anti-HIV activity IC50.

Consider `COc1cc(/C=C/C(=O)CC(=O)/C=C/c2ccc(O)c(OC)c2)ccc1O` [Natural curcumin, Curcumin], for which the “AKT1 mRNA level” value in the series with AKT1 was “slight increase”. Further, the “BDNF mRNA level” value with BDNF is “decrease”. For the same compound, in the series with MAPK1, the “MAPK1 mRNA level” value is recorded as “slight increase”.
As for `COc1cc(/C=C/C(=O)/C=C/c2ccc(O)c(OC)c2)ccc1O` [curcumin analog, (1E,4E)-1,5-bis(4-hydroxy-3-methoxyphenyl)penta-1,4-dien-3-one], in the series on AKT1, the “AKT1 mRNA level” value is reported as “significantly increased”. In the series with BDNF, the “BDNF mRNA level” value was “significantly increased”. In the series on MAPK1, the “MAPK1 mRNA level” value is recorded as “significantly increased”. For the same compound, the lipophilicity entry in series [1] was “very lipophilic”. In addition, in series [2], the “inhibition of HIV-1 virus in vitro” value is “able to inhibit HIV at the nanomolar level” and the “therapeutic index (IC50:cytotoxicity ratio) as compared to curcumin” value is reported as “wider therapeutic index”. In series [3], the IC50 worked out at 8 nM.
